Assay results: patent US20110171312A1, “MODIFIED THERAPEUTIC PEPTIDES, METHODS OF THEIR PREPARATION AND USE” (Nektar Therapeutics, priority 2008, published 2011)
Values joined by “and” are separate entries in the source; they are usually repeats but may differ in a detail not shown here. Identical values can stand only once. “Also recorded” adds a separate entry of the source. Like-named read-outs stand apart in the source and are kept apart here.

Legend:
[1] = tested on: Sprague-Dawley rats; settings: for dose adequate to reduce blood glucose to the target (40-60 mg/dl): insulin mass; for Cmin (minimum blood glucose concentration) / Tmin (time to Cmin): 15 μg/animal
From the text: The first phase established a dose of the compound required to achieve a target blood glucose reduction. This target blood glucose reduction was chosen to be the minimum reduction that is clearly recognizable as different from the resting blood glucose concentration.
The second phase examined the pharmacokinetics/pharmacodynamics of the molecule when administered to rats at the selected dose over an observation time sufficient for the glucose to return to baseline.
These experiments were conducted on male adult Sprague-Dawley rats of approximately 0.30-0.40 kg. Animals were obtained pre-cannulated with a jugular vein catheter (JVC) for blood sampling and, in the case of IV administration, and additional femoral vein catheter (FVC).
Intravenous administration of compounds was made via a femoral catheter in a volume of 300 μl.
Sample Collection was performed as follows. Blood samples of approximately 0.50 mL were collected from the JVC using a 1 mL syringe at each time point. A new syringe was used for each time point along with precautions to prevent contamination and carry-over.
The glucose monitoring was conducted as follows. Approximately 20 μL of whole blood was touched to the end of the glucose test strip of 2 Glucometer Elite glucose monitors for a duplicate determination of blood glucose concentrations. If there was a discrepancy of greater than 5 mg/dl, a third reading was taken.
The sample for compound quantitation in plasma, which served as basis for the PK analysis, was collected and processed as follows. The volume of blood remaining after the glucose measurement (˜480 μL) was anticoagulated with K2 EDTA and centrifuged to recover plasma. The plasma was collected and stored at −80° C. until analysis.

[2] = tested on: Sprague-Dawley rats; assay: Glucose depression after intravenous injection of PEG-insulins (Example 23); assay type: in vivo, rat; settings: for glucose depression (in vivo activity) in comparison to regular insulin: 20 μg/animal equivalent insulin mass (FIG. 8a)
Description: The API concentration in the stock solutions was determined post-dosing by UV/VIS spectroscopy. All stock solutions were prepared on the study initiation day.
Whole blood (0.5 mL) was collected from the jugular vein catheter and placed into serum separator tubes at pre-dose (2 to 0.25 hours prior to dosing) and post-dose time points. After the sample was collected, an equivalent volume of PBS was administered, the catheter lumen was filled with 100 μL of heparinized PBS, and the cannula hub was plugged with a cotton applicator tip soaked in heparinized saline.
A small amount of whole blood was placed on the glucose test strip for blood glucose determination. The remainder of the sample was separated into serum by centrifugation for 10 minutes at 13,000 rpm. The serum was drawn off into a new Eppendorf tubes. The serum samples were stored at −20° C. on dry ice until shipped, and then stored at −80° C. until analysis.
The test and control insulin-containing articles were dissolved in saline (pH 7.4) and injected as an IV bolus into Sprague-Dawley rats. Prior to administration, the rats were lightly anesthetized for approximately 3-5 minutes in a Plexiglas induction chamber by inhaled 3.0-5.0% isoflurane mixed with air. The femoral vein catheter (FVC) was used for IV drug administration and the jugular vein catheter (JVC) was used for venous blood sampling to ensure no cross-contamination occurred.
A 1 mL syringe was fitted into the cannula, and the heparinized phosphate buffered saline solution present in the catheter lumen was removed by drawing back on the syringe plunger until blood filled the hub of the syringe. The heparinized phosphate buffered saline solution and the syringe were discarded and replaced by a new 1 mL syringe containing the appropriate IV dosing volume. The IV dose was then slowly and completely administered to the animal. The cannula was immediately flushed with 300 μL of phosphate buffered saline after dose administration. Blood was withdrawn from an indwelling catheter over a three-hour period. All drug doses refer to equivalent insulin mass delivered to the animals.
This study was designed to obtain a broad sense of the activity of the compounds rather than serve as an accurate activity measurement.

[3] = tested on: rats; assay: Glucose suppression / pulmonary absorption after intratracheal administration of PEG-insulins (Example 23); assay type: in vivo, rat; settings: for glucose suppression profile compared to insulin control: 20-80 μg/animal equivalent insulin mass (FIGS. 8b, 9b, 10-12)
From the text: In the sections below, an effort is made to compare PEG-insulin preparations with respect to PEG molecular weight, PEGylation site, and chemistry. However, an accurate comparison was not always possible due to the presence of multiple PEG-insulin species in the preparations. Also, it could be that observed differences are due to differences in binding affinity to the receptor rather than absorption per se.
PEGylated insulins were examined that were all derivatized in positions B1 or B29 using the same PEG active agent (SPA). The actual synthetic routes to generate specific B1 or B29 isomers were different. Data for B1-5000-PEG-Insulin, 750-lot 2-PEG-insulin and 2K-lot 2-PEG-Insulin and 750-lot 5-PEG-insulin; their respective glucose suppression curves are shown in FIGS. 10 and 8b.
The results are illustrated in FIG. 11.
The impact of acetylation with PEGylation on insulin absorption through the lungs was evaluated. Acetylated derivatives were produced at different levels of acetylation and were all PEGylated at the same position (B1) with the same MW PEG (750 Da): 750-lot A1- and 750-lot A2-PEG-insulin (details are given in Table 2). The results are illustrated in FIG. 12.

[4] = tested on: Sprague-Dawley rats; assay: Dose determination and PK/PD after intratracheal instillation (Example 25); assay type: in vivo, rat; settings: for dose adequate to reach the target nadir glucose suppression: intratracheal instillation, dose ranging leg; for Cmin (minimum blood glucose concentration) / Tmin (time to Cmin): intratracheal, 180, 240, 640 μg/animal for 2K, 3K, 5K (Table 6)
Description: A spectrometric measurement of compound concentration was also made.
Intratracheal Instillation (IT) was conducted as follows.
Sample Collection was performed as follows.
The glucose monitoring was conducted as follows.
The experimental protocol was modified for the analysis of the acetylated compounds. This resulted from the intent to use LC/MS-MS for the quantitation of compound concentrations in plasma. This analytical technique requires a larger volume of plasma to permit concentration of the sample and achieve the requisite increase in sensitivity. […] The protocol was therefore modified to increase the number of animals by two-fold and split the samples between these two cohorts.
To explore the data further, the PK profiles after IT doses were deconvoluted using IV PK parameters using the Wagner Nelson deconvolution procedure, to generate the cumulative absorption profile (FIG. 32).

[5] = tested on: beagle dogs; settings: glucose clamp
Description: The glucose clamp technique involved the continuous infusion of a 50% glucose solution at a rate such that normal serum glucose values were maintained throughout the experiment (e.g., normal range is 80-100 mg/dl).
Glucagon was also infused to maintain normal serum physiologic concentrations. […] Blood was withdrawn from an indwelling catheter over a 10-hour period.

[6] = tested on: Sprague-Dawley rats
Description: The liquid formulation was prepared in Dulbecco's phosphate buffered saline (DPBS) for IT administration. […] The dose was administered at a fixed volume of 300 μL; as a result, dosing solutions were prepared within 2 hours of administration by dilution of the stock solution.
The lowest dose that met the criteria of achieving nadir blood glucose concentrations between approximately 40 and 60 mg/dL in the first 4 hours after compound administration was chosen for the second leg of the study.
The test system included 19 pre-cannulated (jugular vein catheter (JVC)) adult male fasted (˜15-20 hours) Sprague-Dawley rats (Hilltop Lab Animals, Inc., Scottdale, Pa.). Ten animals weighing between 0.285-0.308 kg were used for the dose-ranging leg and 9 animals weighing between 0.288-0.313 kg were used for the PK/PD leg. Prior to dosing, the rats were lightly anesthetized by inhaled Isoflurane (Abbott Laboratories, Chicago, Ill.). […] Two readings of whole blood glucose concentration (mg/dL) per time point were made using a Glucometer Elite glucose monitor (Bayer Corp., Elkhart, Ind.). […] Pharmacodynamic analysis was performed using Microsoft Office Excel 2003.

[7] = rats, IT, 80 μg/animal, Group 1
[8] = rats, IT, 160 μg/animal, Group 1
[9] = rats, IT, 200 μg/animal, Group 1
[10] = rats, IT, 270 μg/animal, Group 1
[11] = rats, IT, 270 μg/animal, Group 2 (PK/PD leg)
[12] = rats, IT, 381 μg/animal, Group 1
[13] = rats, IT, 381 μg/animal, Group 1, euthanized at 4 hr

AKZO insulin: reference compound AKZO NOBEL Human Insulin [reference compound]
time by which blood glucose was back to baseline ([1]; rats, intravenous (AKZO insulin 1-6 μg/rat; PEG-B1 insulins 15 μg/rat)): ≤ 90 min | Glucose Tmin ([1]; rats, intravenous, all doses 1-6 μg/rat): 15 min | dose adequate to reduce blood glucose to the target (40-60 mg/dl) ([1]; rats, intravenous): 3 μg/rat

N^αA1,N^εB29-{3-[methoxy(ethoxy)2K]propionyl}insulin [2000-PEG-insulin]
glucose depression (in vivo activity) in comparison to regular insulin [2]: deviations were significant

N^αA1,N^εB29-{3-[methoxy(ethoxy)550]propionyl}insulin [550-lot 1-PEG-insulin]
glucose suppression profile compared to insulin control [3]: much of the glucose suppression activity of insulin is restored

N^αA1,N^εB29-{3-[methoxy(ethoxy)750]propionyl}insulin [750-lot 3-PEG-insulin]
glucose suppression profile compared to insulin control [3]: prolonged systemic glucose suppression compared to the insulin control

N^αA1,N^εB29-{3-[methoxy(ethoxy)750]propionyl}insulin [750-lot 4-PEG-insulin]
reduction of insulin activity ([2]; 80 μg insulin/animal (FIG. 9a)): about 50%

N^αB1-{3-[methoxy(ethoxy)2K]propionyl}insulin [PEG2000-B1 Insulin]
dose adequate to reach the target nadir glucose suppression [4]: 180 μg/rat | Cmin (minimum blood glucose concentration) [4]: 38 ± 9 mg/dL | Tmin (time to Cmin) [4]: 290 ± 171 min | time up to which blood glucose is still suppressed (not back to baseline) ([4]; intratracheal, selected dose): ≥ 9 h | Cmin (minimum blood glucose concentration) ([1]; rats, intravenous): 42 ± 13 mg/dL | Tmin (time to Cmin) ([1]; rats, intravenous): 33 ± 15 min | Cmin (minimum blood glucose concentration) ([1]; rats, intravenous, listed as PEG2000-B1): 42 mg/dL | dose adequate to reduce blood glucose to the target (40-60 mg/dl) ([1]; rats, intravenous): 15 μg/rat

N^αB1-{3-[methoxy(ethoxy)3K]propionyl}insulin [PEG3000-B1 Insulin]
dose adequate to reach the target nadir glucose suppression [4]: 240 μg/rat | Cmin (minimum blood glucose concentration) [4]: 45 ± 18 mg/dL | Tmin (time to Cmin) [4]: 170 ± 96 min | time up to which blood glucose is still suppressed (not back to baseline) ([4]; intratracheal, selected dose): ≥ 9 h | Cmin (minimum blood glucose concentration) ([1]; rats, intravenous): 36 ± 11 mg/dL | Tmin (time to Cmin) ([1]; rats, intravenous): 24 ± 12 min | Cmin (minimum blood glucose concentration) ([1]; rats, intravenous, listed as PEG3000-B1): 36 mg/dL | dose adequate to reduce blood glucose to the target (40-60 mg/dl) ([1]; rats, intravenous): 15 μg/rat

N^αB1-{3-[methoxy(ethoxy)5K]propionyl}insulin [PEG5000-B1 Insulin]
glucose depression (in vivo activity) in comparison to regular insulin [2]: smaller glucose depression in comparison to regular insulin | time glucose remains below euglycemic levels ([3]; 40 μg/animal, no data beyond 6 hours): at least 6 hours | glucose suppression profile compared to insulin control [3]: little systemic glucose suppression compared to the insulin control | dose adequate to reach the target nadir glucose suppression [4]: 640 μg/rat | Cmin (minimum blood glucose concentration) [4]: 37 ± 3 mg/dL | Tmin (time to Cmin) [4]: 480 ± 0 min | time to reach Cmin (Tmin) ([4]; intratracheal, selected dose): 8 h | time up to which blood glucose is still suppressed (not back to baseline) ([4]; intratracheal, selected dose): ≥ 16 h | time by which plasma concentration falls below the limit of quantitation ([1]; rat, in vivo, iv): ≤ 6 h | Cmin (minimum blood glucose concentration) ([1]; rats, intravenous): 42 ± 9 mg/dL | Tmin (time to Cmin) ([1]; rats, intravenous): 24 ± 8 min | Cmin (minimum blood glucose concentration) ([1]; rats, intravenous, listed as PEG5000-B1): 42 mg/dL | dose adequate to reduce blood glucose to the target (40-60 mg/dl) ([1]; rats, intravenous): 15 μg/rat

N^αB1-{3-[methoxy(ethoxy)750]propionyl}insulin [750-lot 2-PEG-insulin]
glucose depression (in vivo activity) in comparison to regular insulin [2]: smaller glucose depression in comparison to regular insulin | time at which glucose suppression reaches nadir ([3]; 80 μg insulin equivalent): 6 h | time of return of glucose to baseline ([3]; 80 μg insulin equivalent): ≥ 12 h | glucose suppression profile compared to insulin control [3]: prolonged glucose suppression profile; also recorded: prolonged systemic glucose suppression compared to the insulin control

N^εB29-{3-[methoxy(ethoxy)2K]propionyl}insulin [B29 2K-2-PEG-insulin]
infused glucose required to maintain basal levels, versus insulin alone ([5]; powder inhalation): required less infused glucose to maintain basal levels | duration for which glucose infusion was necessary ([5]; powder inhalation (FIG. 13a)): 420 min

N^εB29-{3-[methoxy(ethoxy)750]proprionyl}insulin [B29 750-lot 5-PEG-insulin]
glucose suppression profile compared to insulin control ([3]; listed as B29 750 analog): glucose depression profile similar to the control

di-N^αA1,N^εB29-(acetyl)-B1-{4-[methoxy(ethoxy)2K]butyryl}insulin [PEG2K-Ald-DiAc Insulin]
hypoglycemia (<20 mg/dL blood glucose concentration) ([6]; rat, in vivo): caused hypoglycemia | Cmin, individual animals [6, 7]: 78 mg/dL and 85 mg/dL | Cmin, mean [6, 7]: 81 mg/dL | Tmin, mean [6, 7]: 4.50 h | Cmin, individual animals [6, 8]: 86 mg/dL and 82 mg/dL | Cmin, mean [6, 8]: 84 mg/dL | Tmin, individual animals [6, 8]: 6 h | Tmin, mean [6, 8]: 6.00 h | Cmin, individual animals [6, 9]: 109 mg/dL and 37 mg/dL | Cmin, mean [6, 9]: 73 mg/dL | Tmin, mean [6, 9]: 3.50 h | animals in which target glucose suppression was not achieved ([6]; rats, IT, 270 μg, PK/PD leg): three out of nine | Cmin, individual animals [6, 10]: 31 mg/dL and 35 mg/dL | Cmin, mean [6, 10]: 33 mg/dL | Tmin, individual animals [6, 10]: 3 h and 8 h | Tmin, mean [6, 10]: 5.50 h | Cmin, mean [6, 11]: 52 mg/dL and 52 ± 29 mg/dL | Tmin, mean [6, 11]: 5.80 h and 5.8 ± 3.5 h | Cmin, mean [6, 12]: 20 mg/dL | Tmin, mean [6, 12]: 4.00 h | Cmin, individual animals [6, 13]: 20 mg/dL and 19^a mg/dL | Tmin, individual animals [6, 13]: 4 h | pharmacological effect on mean blood glucose versus saline (historic data) ([6]; rats, IT, 200-270 μg/animal): does have a pharmacological effect | dose selected for the PK/PD leg (nadir blood glucose about 40-60 mg/dL) ([6]; rats, IT, dose range finding leg): 270 µg
